{"source": "patent US20230348415A1", "about": "“BISPECIFIC ANTAGONISTS OF RETINOL-BINDING PROTEIN 4 THAT STABILIZE TRANSTHYRETIN TETRAMERS, THEIR PREPARATION, AND USE IN THE TREATMENT OF COMMON AGE-RELATED COMORBIDITIES” (The Trustees of Columbia University in the City of New York, priority 2020, published 2023)", "key": {"TTR": {"target": "TTR (Homo sapiens (Human), UniProt P02766)", "assay": "biochemical", "assay_type": "binding", "details": "FITC-coupled TTR FP probe; read-out: TTR FP IC50", "description": "Compound binding to TTR was assessed in the fluorescence polarization assay. […] Each well contained 200 nM TTR and 100 nM FITC-diclofenac in the FP buffer (10 mM Tris-HCl pH 7.5, 150 mM NaCl, 0.01% CHAPS, 0.01% Prionex) along with test compounds. Nonspecific binding was determined in the presence of 500 μM unlabeled diclofenac (Sigma-Aldrich). Reactions with test compounds were incubated overnight at 4° C. and FP was measured on SpectramaxM5e plate reader (Molecular Devices)."}, "Kinetic solubility assay": {"assay": "Kinetic solubility assay", "assay_type": "physicochemical", "details": "PBS (pH 7.4)", "description": "Kinetic aqueous solubility determination for compound (±)-44 in PBS (pH 7.4) was conducted by Eurofins using UV detection (230 nm). […] In addition, chromatographic purity (%) was defined as the peak area of the principal peak relative to the total integrated peak area in the HPLC chromatogram of the calibration standard. A chromatogram of the calibration standard of each test compound, along with a UV/VIS spectrum with labeled absorbance maxima, was generated."}, "[1]": {"assay": "Metabolic stability and clearance in human liver microsomes", "assay_type": "in vitro ADME", "description": "(§1) The results of metabolic stability determinations for novel compounds and testosterone (positive control) were conducted in the presence of human, rat, mouse, and monkey liver microsomes. Values shown are percent of parent remaining after a 30 minute incubation. All measurements were done in duplicate. Assay results for testosterone were within an acceptable range.\n(§2) Mixed-gender human liver microsomes (Lot #1710084), male Sprague-Dawley rat liver microsomes (Lot #1610290), male CD-1 mouse liver microsomes (Lot #1710069), and male Cynomolgous liver microsomes (Lot #1510193) were purchased from XenoTech. The reaction mixture, minus NADPH, was prepared as described below. The test article was added into the reaction mixture at a final concentration of 1 μM. The control compound, testosterone, was run simultaneously with the test article in a separate reaction. An aliquot of the reaction mixture (without cofactor) was equilibrated in a shaking water bath at 37° C. for 3 minutes. The reaction was initiated by the addition of cofactor, and the mixture was incubated in a shaking water bath at 37° C. Aliquots (100 μL) were withdrawn at 0, 10, 20, 30, and 60. […] Half-lives were calculated using GraphPad software, fitting to a single-phase exponential decay equation."}, "[2]": {"assay": "Metabolic stability and clearance in mouse liver microsomes", "assay_type": "in vitro ADME", "details": "30 minute incubation", "description": "as §1, §2"}, "PPARγ": {"target": "PPARγ (Homo sapiens (Human), UniProt P37231)", "sequence (P37231 whole entry, species assumed)": "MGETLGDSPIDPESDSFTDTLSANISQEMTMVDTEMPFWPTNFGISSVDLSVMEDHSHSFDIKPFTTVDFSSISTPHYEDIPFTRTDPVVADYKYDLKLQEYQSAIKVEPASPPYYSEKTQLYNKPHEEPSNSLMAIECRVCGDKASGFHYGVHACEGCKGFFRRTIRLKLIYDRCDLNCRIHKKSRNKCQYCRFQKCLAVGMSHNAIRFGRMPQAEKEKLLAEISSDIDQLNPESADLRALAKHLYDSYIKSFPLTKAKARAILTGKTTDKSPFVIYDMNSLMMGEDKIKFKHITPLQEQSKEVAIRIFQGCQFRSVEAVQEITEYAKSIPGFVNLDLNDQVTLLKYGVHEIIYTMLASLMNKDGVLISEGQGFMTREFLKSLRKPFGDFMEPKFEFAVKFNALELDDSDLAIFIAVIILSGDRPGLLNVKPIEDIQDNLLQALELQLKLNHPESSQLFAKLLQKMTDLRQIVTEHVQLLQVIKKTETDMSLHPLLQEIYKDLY", "assay": "PPARγ agonist activity"}, "[3]": {"assay": "Plasma protein binding, mouse plasma", "assay_type": "in vitro ADME", "details": "CD-1, pH 7.4, read-out: % PPB (converted)", "description": "Plasma protein binding (PPB) for compounds determination for compound (±)-44 in PBS (pH 7.4) was conducted by Eurofins using equilibrium dialysis of plasma with HPLC-UV/Vis detection.\nThe peak areas of the test compound in the buffer and test samples were used to calculate percent binding and recovery according to the following formulas:\n• Areap=Peak area of analyte in protein matrix • Areab=Peak area of analyte in buffer • Areac=Peak area of analyte in control sample"}, "serum RBP4": {"target": "serum RBP4 (Mus musculus (Mouse), UniProt Q00724)", "assay": "Serum RBP4 measurement after a single oral dose in mice", "assay_type": "in vivo", "description": "FIG. 5. Pharmacokinetic and pharmacodynamic properties of (±)-44 in mice. (A) Serum RBP4 levels following a single 25 mg/kg oral administration of (±)-44. (B) Blood compound levels following administration of a single oral 5 mg/kg dose of (±)-44. Data represented as the mean±SD. Three mice per treatment group were used in the study.\nBlood samples were collected from a tail vein. Whole blood was drawn into a centrifuge tube and was allowed to clot at room temperature for 30 minutes followed by centrifugation at 2000 g for 15 minutes at […] to collect serum. Aliquots of plasma samples collected in the mouse pharmacokinetic study were analyzed for the RBP4 concentration using the RBP4 (mouse/rat) dual ELISA kit (AdipoGen, San Diego, CA) following the manufacturer's instructions. In adi-hRBP4 transgenic mouse experiments, blood samples were collected from a tail vein. […] Mouse serum RBP4 (produced predominantly in the liver) was measured using the RBP4 (mouse/rat) dual ELISA kit (AdipoGen, San Diego, CA; catalog number AG-45A-0012YTP-KI01)"}, "Abca4−/−/Rdh8−/− mice": {"system": "Abca4−/−/Rdh8−/− mice", "assay": "A2E accumulation in eyes of Abca4−/−/Rdh8−/− mice", "assay_type": "in vivo, mouse", "details": "25 mg/kg daily in chow, 10 weeks, eyecups, HPLC", "text": "FIG. 10. Effect of the long-term oral (±)-44 administration on the level of the lipofuscin fluorophore A2E in eyes of the Abca4^−/−/Rdh8^−/− mice. Bisretinoids were extracted from the eyecups of vehicle-treated wild type mice (circles), vehicle-treated Abca4^−/−/Rdh8^−/− knockout mice (squares), and (±)-44-treated Abca4^−/−/Rdh8^−/− mice (triangles) after 10 weeks of dosing and analyzed by HPLC. A significant 77% reduction in A2E concentration was detected in (±)-44-treated Abca4^−/−/Rdh8^−/− mice compared with vehicle-treated double-knockout controls; one-way ANOVA with Holm-Sidak post hoc test, p<0.0001 (****).\n(±)-44 was formulated into a Picolab 5053 chow to ensure a daily dosing of 25 mg/kg of (±)-44. Long-term 10-week dosing of the compound formulated into a chow was conducted in Abca4^−/−/Rdh8^−/− mice. The age-matched control group of wild-type C57BL/6J mice was kept on a standard Picolab 5053 chow. The age-matched reference group of mice was used for defining the basal level of A2E in mice in the absence of the Abca4 and Rdh8 ablation. […] Following the 10 weeks of dosing, the eyecups of treated and untreated Abca4^−/−/Rdh8^−/− mice as well as the eyecups of the reference wild type mice were collected for the quantitative A2E analysis."}}, "data": [{"smiles": "Cc1cc(C(=O)O)nc(N2CCC(COc3ccccc3C(F)(F)F)C2)n1", "note": "(racemic) [Compound (±)-44, (±)-6-Methyl-2-(3-((2-(trifluoromethyl)phenoxy)methyl)pyrrolidin-1-yl)pyrimidine-4-carboxylic Acid]", "values": [{"measurement": "IC50", "setting": "TTR", "value": 2.85, "unit": "µM"}, {"measurement": "solubility kinetic", "setting": "Kinetic solubility assay", "value": 187.4, "unit": "µM"}, {"measurement": "Liver Microsomal Stability (% remaining at 30 min), HLM", "setting": "[1]; 30 minute incubation", "value": 105, "unit": "%"}, {"measurement": "microsomal CLint at 1 μM", "setting": "[1]; both sexes, human liver microsomes, read-out: Microsomal CLint, H", "value": "< 0.0231", "unit": "µL/min/mg"}, {"measurement": "Liver Microsomal Stability (% remaining at 30 min), MLM", "setting": "[2]", "value": 95, "unit": "%"}, {"measurement": "IC50", "setting": "PPARγ", "value": "> 100", "unit": "µM"}, {"measurement": "PPARγ agonist activity", "setting": "PPARγ", "value": "devoid of PPARγ agonist activity"}, {"measurement": "fraction unbound", "setting": "[3]", "value": 0.04}, {"measurement": "effect on serum TTR levels", "setting": "serum RBP4; compound dosing in mice, data not shown", "value": "no effect"}, {"measurement": "maximum reduction in serum RBP4", "setting": "serum RBP4; single 25 mg/kg oral dose, 6 h after dose", "value": 81, "unit": "%"}, {"measurement": "reduction in serum RBP4 at the 24 h time point", "setting": "serum RBP4; single 25 mg/kg oral dose, 24 h", "value": 64, "unit": "%"}, {"measurement": "reduction in A2E concentration vs vehicle-treated Abca4−/−/Rdh8−/− mice", "setting": "Abca4−/−/Rdh8−/− mice", "value": 77, "unit": "%"}]}]}
